The results in this text go back to doi:10.1101/761585v1, “A simple method to determine the elimination half-life of drugs displaying noncumulative toxicity” (bioRxiv, 2019).

In data set [1] the test system is BALB/c mice. In words: Multi-dose (non)cumulative toxicity, 11 doses at the MND at 12 hour intervals. Format: in vivo, mouse. How it is done: Figure 1. All experiments required to determine the elimination half-life using TOXHL. BALB/c mice (6-8 weeks, 20 g) were used for all experiments. (A) Acute toxicity experiments to determine survival vs. concentration of drug injected intraperitoneally. Determining the maximum nonlethal dose (MND), which is the highest concentration of a drug that causes no mortality, is essential for later noncumulative toxicity experiments. Here, the MND for Pexiganan is 32 mg/kg (blue arrow), and the MND for Ω76 is 64 mg/kg (red arrow). (B) Multi-dose (non)cumulative toxicity determination experiments. Here, mice were intraperitoneally injected with 11 doses of drug (at the MND concentration), at 12 hour intervals over the course of 5 days. All mice treated with Pexiganan died, indicating cumulative toxicity. All mice treated with Ω76 survived, indicating noncumulative toxicity. The difference between the survival outcomes of the Ω76 and Pexiganan cohorts are statistically significant (p=7e-3, Fisher’s test). […] 5 doses at the MND were injected intraperitoneally at Δt of 15, 7.5 and 3 minutes. 67% survival (33% mortality) was observed a Δt = 3 minutes (ΔtM, highlighted in yellow). […] Note that a separate set of similar experiments was described in our previous work[19], but these experiments were only used to assess the toxicity of Ω76.
Cumulative toxicity comprises the lethal effects of multiple doses of drug when injected intraperitoneally at MND concentrations. 10 BALB/c mice (6-8 weeks, 20 g) were treated with 11 doses of Pexiganan, administered at the MND (32 mg/kg) at 12 hour intervals, over the course of 5 days. Despite Pexiganan never exceeding the MND concentration, 100% mortality was observed. […] However, this damage is not reversed within the dosing interval timespan (12 hours), and additional doses only serve to incrementally increase the total damage caused to mice, until a threshold is reached and death occurs.
Figure 2. Peritonea of BALB/c mice (6-8 weeks, 20 g) treated with Ω76 and Pexiganan for (non)cumulative toxicity experiments. […]

For data set [2], the system named is BALB/c mice. In words: Acute toxicity, single intraperitoneal dose, 5-day survival. The data set is classed as in vivo, mouse. To be noted: highest single intraperitoneal dose causing no mortality in BALB/c mice observed for 5 days. How it is done:
Acute toxicity comprises the lethal effects of a single dose of a drug, rather than the combined lethal effects of multiple doses of a drug. BALB/c mice (6-8 weeks, 20 g) were injected intraperitoneally with varying doses of Ω76 and Pexiganan, at 2-fold concentration increments. 5 mice per concentration cohort were used. […] Mice treated with both Ω76 and Pexiganan display mortality that increases in a dose-dependent manner. […] However, for TOXHL, determining the maximum nonlethal dose (MND) rather than the LD50 is more important. […] Here, the MND values for Ω76 and Pexiganan are […] (Figure 1A, shown in arrows).
Figure 1. All experiments required to determine the elimination half-life using TOXHL. BALB/c mice (6-8 weeks, 20 g) were used for all experiments. (A) Acute toxicity experiments to determine survival vs. concentration of drug injected intraperitoneally. Determining the maximum nonlethal dose (MND), which is the highest concentration of a drug that causes no mortality, is essential for later noncumulative toxicity experiments. Here, the MND for Pexiganan is 32 mg/kg (blue arrow), and the MND for Ω76 is 64 mg/kg (red arrow). (B) Multi-dose (non)cumulative toxicity determination experiments. Here, mice were intraperitoneally injected with 11 doses of drug (at the MND concentration), at 12 hour intervals over the course of 5 days. […]

The nature of data set [3]: Solubility of peptide stocks in saline vs PBS. The data set is classed as physicochemical. To be noted: 20 mg/mL stocks prepared in physiological saline (0.8% NaCl). The method, then:
For all experiments described in this work, BALB/c mice (6-8 weeks, 20 g) were housed at the Central Animal Facility (CAF, IISc) and fed ad libitum with pellet feed and water. All animal experiments were approved by the Institutional Animal Ethics Committee, IISc (Project No. CAF/Ethics/550/2017). A detailed description of all methods used is provided in the results section. However, it should be noted that 20 mg/mL stocks for both Ω76 and Pexiganan were prepared in physiological saline (0.8% NaCl) and stored at −80 °C. […] These stocks were diluted in saline to obtain the concentration needed for the specific experiment. All intraperitoneal injections were 200 μL in volume, as larger volumes could alter peritoneal elimination kinetics.

“And” between values parts separate entries of the source, which are not always exact repeats. Equal entries are not always repeated.

In the case of Pexiganan, the “survival outcome after 11 doses at the MND” value in the data set with BALB/c mice [1] (10 BALB/c mice, 11 intraperitoneal doses at the MND (Pexiganan 32 mg/kg, Ω76 64 mg/kg), 12 hour intervals over 5 days) is on record as “died”. Moreover, the “mortality after 11 doses at the MND” value with BALB/c mice [1] (10 BALB/c mice, 11 intraperitoneal doses of Pexiganan at the MND (32 mg/kg), 12 hour intervals over 5 days) was 100%. Moreover, the “autopsy finding, peritoneal organs” value with BALB/c mice [1] (BALB/c mice, intraperitoneal doses at the MND at 12 hour intervals (Ω76 11 doses of 64 mg/kg over 5 days; Pexiganan 32 mg/kg until mortality)) was “intestinal inflammation is clearly visible”. Also, the “maximum nonlethal dose (MND)” value in the data set on BALB/c mice [2] was 64 mg/kg and 32 mg/kg. Besides, in data set [3], the “solubility in phosphate buffered saline (PBS) compared with physiological saline” value was “poorer solubility”.
